Source: patent US20240102022A1, “MODULATING BONE MORPHOGENIC PROTEIN (BMP) SIGNALING IN THE TREATMENT OF ALZHEIMER'S DISEASE” (CZ Biohub SF, LLC, priority 2020, published 2024)

Experiments:
[1] = test system: Zsgreen control neurospheres; assay: Colony counts of Zsgreen-infected control human fetal neurospheres after 1 week of treatment; type: cell-based; conditions: 1 week treatment; FIG. 5E
Text: (§1) A human fetal neural stem cell line from University of California Irvine was developed from fetal neural tissue at 18 week gestational age enriched for CD133+ cells. The use of neural progenitor cells as non-hESC stem cells in this study is compliant to Stanford Stem Cell Research Oversight (SCRO) Protocol 194 pre-approved by the Internal Review Board (IRB)/SCRO of the Stanford Research Compliance Office (RCO). Informed consent was obtained, and standard material transfer agreement signed. Cells were grown in nonadherent ultra-low attachment well plates in X-VIVO 15 media (LONZA) supplemented with LIF (10 ng/ml), N2 Supplement, N-acetylcysteine (63 ug/ml), Heparin (2 ug/ml), EGF (20 ng/ml), and FGF (20 ng/ml).
(§2) cDNA for mutant APP harboring the Swedish and Indiana mutations was cloned into a pHIV-Zsgreen backbone obtained from Addgene. Lipofectamine 2000 was used to transduce the construct (either pHIV-Zsgreen+mutant APP or pHIV-Zsgreen alone) into H293T cells and media was collected after 48 hours. Virus was ultra-centrifuged and resuspended in PBS then titered before infecting human fetal neurospheres.
Human neurospheres were dissociated into single cells and infected with either a lentiviral construct containing pHIV-Zsgreen+mutant APP or pHIV-Zsgreen alone and allowed to grow for a week. […] Colonies were counted after 7 days.

[2] = test system: phospho-SMAD 1/5/8 in human fetal neurospheres expressing mutant APP; assay: phospho-SMAD 1/5/8 immunofluorescence staining in neurospheres treated with BMP receptor inhibitor; type: cell-based; conditions: neurospheres treated for 1 week, different doses; FIGS. 5B and C
Text: as §1, §2
Neurospheres were cytospun onto slides and fixed in ice-cold methanol for 5 minutes. Slides were rinsed 3 times in phosphate-buffered saline (PBS) at room temperature, followed by blocking in 3% BSA in PBS for 1 hour at room temperature. […]

pSMAD 1/5/8 level after treatment [2]: substantially decreased
Compound: c1ccc2c(-c3cnn4cc(-c5ccc(N6CCNCC6)cc5)cnc34)ccnc2c1 [LDN-193189]
impact on Zsgreen control neurosphere growth [1]: minimal impact
